Values of other authors, collected in the CATMoS acute toxicity set (Mansouri et al. 2021).
Where “and” joins values, the source holds several entries; their conditions need not be identical. Equal values may be shown once.

Experiment: rat acute oral toxicity
Settings: in vivo
For `CCc1ccc2c(c1)C(=O)c1ccccc1C2=O`, the LD50 is listed as 2800 mg/kg. In the case of `CCC(C)(N)C#N` (centres undefined), the LD50 is given as 74 mg/kg. For `NCCCCCCCCCCC(=O)O`, the LD50 is listed as 14700 mg/kg. For `CCCCC(CC)CCC(CCC(CC)CC)OS(=O)(=O)O` (centres undefined), the LD50 is listed as 1430 mg/kg. In the case of `Clc1cccc(N2CCNCC2)c1`, the LD50 is given as 142 mg/kg. In the case of `CN1CCN(CCCN2c3ccccc3Sc3ccc(C(F)(F)F)cc32)CC1`, the LD50 is listed as 543 mg/kg. In the case of `Cc1cc(C(C)(C)C)cc(C)c1CC1=NCCN1`, the LD50 is given as 230 mg/kg. For `CCCCC(CC)C(O)C(=O)O` (centres undefined), the LD50 is listed as 3400 mg/kg. For `C[n+]1cc2c3c(ccc2c2ccc4cc5c(cc4c21)OCO5)OCO3`, the LD50 is listed as 1660 mg/kg. For `NS(=O)(=O)c1cc2c(cc1Cl)N=CNS2(=O)=O`, the LD50 is listed as 10000 mg/kg. For `Nc1c(/N=N/c2ccc(-c3ccc(/N=N/c4cc(S(=O)(=O)O)c5ccccc5c4N)cc3)cc2)cc(S(=O)(=O)O)c2ccccc12`, the LD50 is given as 15200 mg/kg. For `CC[N+]1(CC)CCC(OC(=O)C(O)(c2ccccc2)c2ccccc2)C1` (centres undefined), the LD50 is given as 760 mg/kg. For `C=CCl`, the LD50 is given as 500 mg/kg. In the case of `CC(C)OC(=O)c1c[n+](C)c2n(c1=O)C(C)CCC2` (centres undefined), the LD50 is given as 1200 mg/kg. In the case of `CC(c1ccccc1)N(C)N=O` (centres undefined), the LD50 is listed as 600 mg/kg. For `CCOc1ccc([N+](=O)[O-])cc1`, the LD50 is listed as 3300 mg/kg. In the case of `CCOC(=O)C=[N+]=[N-]`, the LD50 is listed as 400 mg/kg. In the case of `CCOC(=O)C1=C(C)NC(C)=C(C(=O)OC)C1c1cccc([N+](=O)[O-])c1` (centres undefined), the LD50 is listed as 15400 mg/kg. For `O=C(CCCN1CCC(O)CC1)c1ccc(F)cc1`, the LD50 is listed as 2400 mg/kg. In the case of `CCN(CC)CCSSCCN(CC)CC`, the LD50 is listed as 340 mg/kg. In the case of `NC(=S)NNCNNC(N)=S`, the LD50 is given as 6.35 mg/kg. For `CN(C)C=CC#N`, the LD50 is listed as 946 mg/kg. For `ClCCOCCC(OCCCl)OCCCl`, the LD50 is given as 710 mg/kg. For `CCOC(=S)c1ccc(Cl)cc1`, the LD50 is listed as 995 mg/kg. For `COc1ccc([N+](=O)[O-])cc1CNCCO`, the LD50 is given as 30 mg/kg. For `CCCC/C=C\CCCCCCOC(C)=O`, the LD50 is given as 13400 mg/kg. For `NCC(=O)O`, the LD50 is listed as 7930 mg/kg and 3340 mg/kg. In the case of `COC(=O)C(c1ccccc1)C1CCCCN1` (centres undefined), the LD50 is listed as 367 mg/kg and 350 mg/kg. For `O=C(COc1ccc(Cl)cc1)N1CCN(Cc2ccc3c(c2)OCO3)CC1`, the LD50 is given as 4480 mg/kg. In the case of `CCOP(=O)(OCC)SCC`, the LD50 is given as 27 mg/kg. For `COP(=O)(OC)SCn1c(=O)oc2cc(Cl)cnc21`, the LD50 is given as 1180 mg/kg. For `CON(C)C(=O)Nc1ccc(Br)c(Cl)c1`, the LD50 is given as 2150 mg/kg. In the case of `CC(C)C(C(=O)OC(C#N)c1ccc(Oc2ccccc2)cc1)c1ccc(Cl)cc1` (centres undefined), the LD50 is given as 451 mg/kg. In the case of `Oc1ccc(Nc2ccc3ccccc3c2)cc1`, the LD50 is listed as 5200 mg/kg. For `CN1CCC(OC2c3ccccc3CCc3ccccc32)CC1`, the LD50 is given as 1500 mg/kg. For `C#CC(C)(O)C(O)c1ccccc1` (centres undefined), the LD50 is listed as 730 mg/kg. In the case of `O=C(Nc1cccc(Cl)c1)OCC#CCCl`, the LD50 is listed as 527 mg/kg. For `CNc1nc(C)nc(OC)n1`, the LD50 is given as 394 mg/kg. In the case of `NCCNc1ccc(N)cc1`, the LD50 is given as 190 mg/kg. In the case of `Cc1cc(O)ccc1[N+](=O)[O-]`, the LD50 is given as 1200 mg/kg. In the case of `CCCCCCCc1ccccc1O`, the LD50 is listed as 2750 mg/kg. For `O=C1C=CC(=O)c2ccccc21`, the LD50 is listed as 190 mg/kg. For `CCOP(=S)(OCC)Oc1ccc(=O)n(-c2ccccc2)n1`, the LD50 is given as 424 mg/kg. In the case of `CN1COCN(Cc2cnc(Cl)s2)C1=N[N+](=O)[O-]`, the LD50 is listed as 1560 mg/kg. In the case of `CN(C)CCN(Cc1ccsc1)c1ccccn1`, the LD50 is given as 525 mg/kg. For `Clc1cc(Cl)c2nsnc2c1Cl`, the LD50 is given as 1620 mg/kg. In the case of `CCOC(=O)C=Cc1ccc(Cl)cc1`, the LD50 is listed as 957 mg/kg. In the case of `CCOP(=S)(OCC)SC1CCSC1` (centres undefined), the LD50 is listed as 20 mg/kg. In the case of `CCc1cnc(C)cn1`, the LD50 is listed as 900 mg/kg. For `Cc1ccc(/N=N/c2c(O)c(S(=O)(=O)O)cc3ccc(S(=O)(=O)O)cc23)c(C)c1`, the LD50 is listed as 23200 mg/kg. For `CC(=O)[C@H]1CC[C@H]2[C@@H]3CC[C@H]4C[C@H](O)CC[C@]4(C)[C@H]3C(=O)C[C@]12C`, the LD50 is given as 297 mg/kg. In the case of `CC(C)(C)N(NC(=O)c1ccc(Cl)cc1)C(=O)c1ccccc1`, the LD50 is listed as 2850 mg/kg. In the case of `O=C(NC[P+](CO)(CO)CO)NC[P+](CO)(CO)CO`, the LD50 is listed as 245 mg/kg. For `CC[N+]1(CC)CCC(=C(c2ccccc2)c2ccccc2)C1C` (centres undefined), the LD50 is given as 1090 mg/kg. In the case of `CC(CN1CCN(CCOCCO)CC1)CN1c2ccccc2Sc2ccc(Cl)cc21` (centres undefined), the LD50 is given as 400 mg/kg. For `O=C1C(CCSc2ccccc2)C(=O)N(c2ccccc2)N1c1ccccc1`, the LD50 is listed as 450 mg/kg. For `O=C1c2ccccc2C(=O)N1SC1CCCCC1`, the LD50 is given as 2600 mg/kg. In the case of `O=C1CC[C@@]2(O)[C@H]3Cc4ccc(O)c5c4[C@@]2(CCN3CC2CC2)[C@H]1O5`, the LD50 is given as 1450 mg/kg. For `CCCCNC(=S)Nc1ccccc1`, the LD50 is listed as 150 mg/kg. For `Cc1ncc(CSSCc2cnc(C)c(O)c2C)c(C)c1O`, the LD50 is given as 2150 mg/kg. In the case of `CCCN=C(NCCC)C(OCC)c1ccc(Cl)cc1` (centres undefined), the LD50 is given as 47 mg/kg. For `ClCCCCCCCl`, the LD50 is listed as 2680 mg/kg. For `C=CCSSCC=C`, the LD50 is given as 260 mg/kg. For `CCCCc1ccn[nH]1`, the LD50 is listed as 509 mg/kg. For `CCOCc1cnc(C)nc1N`, the LD50 is listed as 1450 mg/kg. For `O=NN1CCOCC1`, the LD50 is given as 282 mg/kg. For `CNC(=O)ON=C1SCC(=O)NC1C` (centres undefined), the LD50 is given as 5.66 mg/kg. In the case of `OCC1CC2CC1C1CCC(CO)C21` (centres undefined), the LD50 is listed as 2250 mg/kg. For `CCCCOC(CBr)c1ccccc1` (centres undefined), the LD50 is listed as 250 mg/kg. For `CN1CCC(=C2c3ccccc3C=Cc3ccccc32)CC1`, the LD50 is given as 295 mg/kg. For `CCCOCCN(C(=O)CCl)c1c(CC)cccc1CC`, the LD50 is listed as 2200 mg/kg. For `O=C(Nc1cc(Cl)cc(Cl)c1O)c1c(O)c(Cl)cc(Cl)c1Cl`, the LD50 is given as 1000 mg/kg. In the case of `CC(C)CCN(C)C`, the LD50 is listed as 225 mg/kg. For `CC1CCCC(C)N1CCCNc1n[nH]c2ccccc12` (centres undefined), the LD50 is given as 700 mg/kg.
